Assay results from patent publication US11079373B2, “Biomarker detection methods and systems and kits for practicing same” (The Board of Trustees of the Leland Stanford Junior …, priority 2015, dated 2021).

Key:
Format in all cases: cell-based, human
[1] = tested on: peripheral blood mononuclear cells (PBMC); test: FlowSpot IFNγ secretion in situ detection, PBMC co-cultured with IFNγ capture microparticles in presence of PHA; conditions: 16 h; for FLOWSPOT SPOTS (n) (IFNγ): percent positive × 7,000
Procedure: (§1) One hundred thousand peripheral blood mononuclear cells (0.1×10^6 PBMC) or purified lymphocytes were mixed with 7,000 capture microspheres and distributed into each assay well of a 96-well U bottom plate. The plate was centrifuged at 1,500×g for 5 min and the supernatant was removed. The pellet of cells and capture beads were resuspended in 200 μL culture medium with or without testing reagent(s) or stimulus(i), then the plate was incubated in a humidified 37° C., 5% CO2 incubator for 10 min to 7 days (usually 2 to 16 h). After incubation, the cells were lysed in NP-40 lysis buffer (10 mM Tris-HCl, pH 7.4, 10 mM NaCl, 3 mM MgCl2, 0.5% NP-40). The capture beads were washed twice with 3% HBSA (3% BSA in HBSS) and incubated with 50 μL PE-labeled anti-Bio-marker for 60 min at room temperature. After two washes of 3% HBSA, the beads were acquired and analyzed on a BD FACSCanto II flow cytometer. The number of positive spots was calculated based on the following formulas: Percent positive spots (%)=Number of positive particles acquired/Total number of particles acquired×100 Total number of positive spots=Percent positive spots (%)×7,000 (where 7,000=total number of particles/test)
In parallel, 0.1×10^6 PBMC cells from the same donor were co-cultured with 7,000 IFNγ capture microparticles in a humidified 37° C., 5% CO2 incubator for 16 h in the presence of PHA at various concentrations. After incubation, the cells were lysed in NP-40 lysis buffer (10 mM Tris-HCl, pH 7.4, 10 mM NaCl, 3 mM MgCl2, 0.5% NP-40). The capture beads were washed twice with 3% HBSA (3% BSA in HBSS) and incubated with 50 μL PE-labeled anti-IFNγ for 60 min at room temperature. After an additional two washes of 3% HBSA, the beads were acquired and analyzed on a BD FACSCanto II flow cytometer.

[2] = tested on: peripheral blood mononuclear cells (PBMC); test: Cytometric Bead Array (CBA) IFNγ secretion detection in culture media of PHA-treated PBMC; conditions: 16 h, culture medium
Procedure: One hundred thousand peripheral blood mononuclear cells (0.1×10^6 PBMC) in 100 μL of 10% FBS RPMI 1640 containing varying concentrations of PHA were seeded in each well in a 96 well plate and incubated in a humidified 37° C., 5% CO2 incubator for 16 h. The plate was centrifuged at 2,500 g for 3 min and 50 μL culture medium of each well was carefully transferred into each corresponding test well in a new 96 well plate. After adding 50 μL INFγ capture beads (BD Biosciences; Cat. 558269) into each well, the plate was incubated at room temperature (RT) for 60 min with constant shaking on a plate shaker. After adding 50 μL INFγ PE-detection reagents (BD Biosciences; Cat. 51-9004031), the plate was continually incubated at RT for additional 2 h. The beads were then washed three times with 200 μL wash buffer (0.05% Tween-20 in PBS) and acquired on a BD FACSCanto II flow cytometer. The concentrations of INFγ in the culture media from each well were extrapolated from the standard curve generated from a series of known INFγ standards in the same batch of CBA assay.

C.T.L. cells = test: Two-color IFNγ/IL-2 detection by FLOWSPOT; conditions: PHA at various concentrations, 16 h
Procedure: as §1
One hundred thousand C.T.L. cells were co-cultured with a mix of IFNγ and IL-2 capture microparticles (7,000 each with different fluorescent ID codes) for 16 h in the presence of PHA at various concentrations.

PBMC cells = test: Three-color IFNγ/IL-2/GrB detection by […]; conditions: PHA 20 ug/mL, 16 h

phytohaemagglutinin [PHA]
FLOWSPOT MFI (IFNγ) ([1]; PHA 0.5 μg/mL): 166 | FLOWSPOT % Positive Spot (IFNγ) ([1]; PHA 0.5 μg/mL, 0.1×10^6 PBMC, 7,000 microparticles): 24% | FLOWSPOT SPOTS (n) (IFNγ) ([1]; PHA 0.5 μg/mL): 1680 n | FLOWSPOT % Positive Spot (IFNγ) ([1]; PHA 1 μg/mL): 35% | FLOWSPOT MFI (IFNγ) ([1]; PHA 1 μg/mL): 659 | FLOWSPOT SPOTS (n) (IFNγ) ([1]; PHA 1 μg/mL): 2450 n | FLOWSPOT % Positive Spot (IFNγ) ([1]; PHA 2.5 μg/mL): 43% | FLOWSPOT MFI (IFNγ) ([1]; PHA 2.5 μg/mL): 4050 | FLOWSPOT SPOTS (n) (IFNγ) ([1]; PHA 2.5 μg/mL): 3010 n | FLOWSPOT % Positive Spot (IFNγ) ([1]; PHA 5 μg/mL): 45% | FLOWSPOT MFI (IFNγ) ([1]; PHA 5 μg/mL): 9541 | FLOWSPOT SPOTS (n) (IFNγ) ([1]; PHA 5 μg/mL): 3150 n | FLOWSPOT % Positive Spot (IFNγ) ([1]; PHA 10 μg/mL): 56% | FLOWSPOT MFI (IFNγ) ([1]; PHA 10 μg/mL): 19594 | FLOWSPOT SPOTS (n) (IFNγ) ([1]; PHA 10 μg/mL): 3920 n | FLOWSPOT % Positive Spot (IFNγ) ([1]; PHA 15 μg/mL): 57% | FLOWSPOT MFI (IFNγ) ([1]; PHA 15 μg/mL): 21680 | FLOWSPOT SPOTS (n) (IFNγ) ([1]; PHA 15 μg/mL): 3990 n | FLOWSPOT % Positive Spot (IFNγ) ([1]; PHA 20 μg/mL): 55% | FLOWSPOT MFI (IFNγ) ([1]; PHA 20 μg/mL): 22241 | FLOWSPOT SPOTS (n) (IFNγ) ([1]; PHA 20 μg/mL): 3850 n | CBA IFNγ ([2]; PHA 0.5 μg/mL, from standard curve): 17 pg/mL | CBA IFNγ ([2]; PHA 1 μg/mL): 36 pg/mL | CBA IFNγ ([2]; PHA 2.5 μg/mL): 76 pg/mL | CBA IFNγ ([2]; PHA 5 μg/mL): 174 pg/mL | CBA IFNγ ([2]; PHA 10 μg/mL): 281 pg/mL | CBA IFNγ ([2]; PHA 15 μg/mL): 344 pg/mL | CBA IFNγ ([2]; PHA 20 μg/mL): 312 pg/mL | IFNγ response to PHA (C.T.L. cells): dose-dependent responses | IL-2 response to PHA (C.T.L. cells): dose-dependent responses | median channel value (MCV), intensity of IFNγ secretion (PBMC cells): 653 | median channel value (MCV), intensity of IL-2 secretion (PBMC cells): 407 | number of positive spots for GrB (PBMC cells): 630 spots | number of positive spots for IFNγ (PBMC cells): 5,320 spots | number of positive spots for IL-2 (PBMC cells): 4,340 spots
